Reference: ChEMBL document CHEMBL5346903, “Discovery of novel and bioavailable histone deacetylases and cyclin-dependent kinases dual inhibitor to impair the stemness of leukemia cells” (Eur J Med Chem, 2023)
pIC50: −log10 of the molar value. Values belong to the molecule of their own block, whether it stands above or below them.

Assays:
Histone deacetylase 1 = Histone deacetylase 1 (Homo sapiens, UniProt Q13547); assay: Inhibition of recombinant human HDAC1 using HDAC substrate incubated for 30 mins by fluorescence based assay
Histone deacetylase 3 = Histone deacetylase 3 (Homo sapiens, UniProt O15379); assay: Inhibition of recombinant human HDAC3 using HDAC substrate incubated for 30 mins by fluorescence based assay
Histone deacetylase 4 = Histone deacetylase 4 (Homo sapiens, UniProt P56524); assay: Inhibition of recombinant human HDAC4 using HDAC substrate incubated for 30 mins by fluorescence based assay
[1] = target: CDK4/Cyclin D3 (Homo sapiens) (UniProt P11802+P30281); assay: Inhibition of CDK4/cyclinD3 (unknown origin) at 100 nM preincubated for 20 mins followed by [gamma-33P]ATP addition measured after 120 mins in presence of ATP by Hot-SpotSM kinase assay relative to control; format: protein-complex assay; conditions: time 140.0 min
[2] = target: Cyclin-dependent kinase 5/CDK5 activator 1 (Homo sapiens) (UniProt Q00535+Q15078); assay: Inhibition of CDK5/p35NCK (unknown origin) at 100 nM preincubated for 20 mins followed by [gamma-33P]ATP addition measured after 120 mins in presence of ATP by Hot-SpotSM kinase assay relative to control; format: protein-complex assay; conditions: time 140.0 min
[3] = target: Cyclin-dependent kinase 13/Cyclin-K (Homo sapiens) (UniProt Q14004+O75909); assay: Inhibition of CDK13/cyclinK (unknown origin) at 100 nM preincubated for 20 mins followed by [gamma-33P]ATP addition measured after 120 mins in presence of ATP by Hot-SpotSM kinase assay relative to control; format: protein-complex assay; conditions: time 140.0 min
HL-60 [4] = assay: Downregulation of Pol-II S5 level in human HL-60 cells incubated for 6 hrs by Western blot analysis; format: functional, cell-based; conditions: dose <= 1000.0 nM
HL-60 [5] = assay: Induction of apoptosis in human HL-60 cells assessed as viable cells at 0.2 uM incubated for 48 hrs by annexin V-FITC/PI satining based flow cytometry (reference value: 97.4 %); format: functional; conditions: read-out: Activity
HL-60 [6] = assay: Induction of apoptosis in human HL-60 cells assessed as early apoptotic cells at 0.2 uM incubated for 48 hrs by annexin V-FITC/PI satining based flow cytometry (reference value: 1.24 %); format: functional
HL-60 [7] = assay: Induction of apoptosis in human HL-60 cells assessed as early apoptotic cells at 1 uM incubated for 48 hrs by annexin V-FITC/PI satining based flow cytometry (reference value: 1.24 %); format: functional
HL-60 [8] = assay: Induction of apoptosis in human HL-60 cells assessed as late apoptotic cells at 2 uM incubated for 48 hrs by annexin V-FITC/PI satining based flow cytometry (reference value: 1.33 %); format: functional
U-937 [9] = assay: Induction of apoptosis in human U-937 cells assessed as viable cells at 0.2 uM incubated for 48 hrs by annexin V-FITC/PI satining based flow cytometry (reference value: 90.0 %); format: functional; conditions: read-out: Activity
U-937 [10] = assay: Induction of apoptosis in human U-937 cells assessed as early apoptotic cells at 1 uM incubated for 48 hrs by annexin V-FITC/PI satining based flow cytometry (reference value: 0.945 %); format: functional
U-937 [11] = assay: Induction of apoptosis in human U-937 cells assessed as late apoptotic cells at 0.5 uM incubated for 48 hrs by annexin V-FITC/PI satining based flow cytometry (reference value: 7.10 %); format: functional
U-937 [12] = assay: Induction of apoptosis in human U-937 cells assessed as necrotic cells at 2 uM incubated for 48 hrs by annexin V-FITC/PI satining based flow cytometry (reference value: 1.96 %); format: functional
[13] = Cytotoxicity against human Kasumi 1 cells assessed as CD34positive CD38negative leukemic stem cell-like cells sub-population at 2 uM incubated for 24 hrs by APC/FITC satining based flow cytometry (reference value: 96.8 %); format: functional
[14] = AUC in Sprague-Dawley rat at 25 mg/kg, po measured upto 8 hrs by LC/MS-MS analysis; format: ADME, organism-based; set-up: time < 8 hrs, dose 25 mg/kg, route po; conditions: in vivo
[15] = target: Cyclin-dependent kinase 2/cyclin E1 (Homo sapiens) (UniProt P24864+P24941); conditions: dose 100.0 nM, time 140.0 min
HL-60 [16] = assay: Induction of apoptosis in human HL-60 cells assessed as viable cells at 1.2 uM incubated for 48 hrs by annexin V-FITC/PI satining based flow cytometry (reference value: 94.7 %); format: functional; conditions: read-out: Activity
HL-60 [17] = assay: Induction of apoptosis in human HL-60 cells assessed as early apoptotic cells at 0.6 uM incubated for 48 hrs by annexin V-FITC/PI satining based flow cytometry (reference value: 2.4 %); format: functional
HL-60 [18] = assay: Induction of apoptosis in human HL-60 cells assessed as early apoptotic cells at 5 uM incubated for 48 hrs by annexin V-FITC/PI satining based flow cytometry (reference value: 2.4 %); format: functional
HL-60 [19] = assay: Induction of apoptosis in human HL-60 cells assessed as necrotic cells at 0.6 uM incubated for 48 hrs by annexin V-FITC/PI satining based flow cytometry (reference value: 0.04 %); format: functional
HL-60 [20] = assay: Induction of apoptosis in human HL-60 cells assessed as necrotic cells at 5 uM incubated for 48 hrs by annexin V-FITC/PI satining based flow cytometry (reference value: 0.04 %); format: functional
U-937 [21] = assay: Induction of apoptosis in human U-937 cells assessed as viable cells at 0.6 uM incubated for 48 hrs by annexin V-FITC/PI satining based flow cytometry (reference value: 93.7 %); format: functional; conditions: read-out: Activity
U-937 [22] = assay: Induction of apoptosis in human U-937 cells assessed as early apoptotic cells at 0.6 uM incubated for 48 hrs by annexin V-FITC/PI satining based flow cytometry (reference value: 1.93 %); format: functional
U-937 [23] = assay: Induction of apoptosis in human U-937 cells assessed as early apoptotic cells at 1.2 uM incubated for 48 hrs by annexin V-FITC/PI satining based flow cytometry (reference value: 1.93 %); format: functional
U-937 [24] = assay: Induction of apoptosis in human U-937 cells assessed as early apoptotic cells at 5 uM incubated for 48 hrs by annexin V-FITC/PI satining based flow cytometry (reference value: 1.93 %); format: functional
U-937 [25] = assay: Induction of apoptosis in human U-937 cells assessed as late apoptotic cells at 0.6 uM incubated for 48 hrs by annexin V-FITC/PI satining based flow cytometry (reference value: 4.23 %); format: functional
U-937 [26] = assay: Induction of apoptosis in human U-937 cells assessed as late apoptotic cells at 1.2 uM incubated for 48 hrs by annexin V-FITC/PI satining based flow cytometry (reference value: 4.23 %); format: functional
U-937 [27] = assay: Induction of apoptosis in human U-937 cells assessed as late apoptotic cells at 5 uM incubated for 48 hrs by annexin V-FITC/PI satining based flow cytometry (reference value: 4.23 %); format: functional
U-937 [28] = assay: Induction of apoptosis in human U-937 cells assessed as necrotic cells at 5 uM incubated for 48 hrs by annexin V-FITC/PI satining based flow cytometry (reference value: 0.102 %); format: functional
U-937 [29] = assay: Induction of differentiation in human U-937 cells assessed as increase in CD11b positive cells at 0.6 uM incubated for 48 hrs by FITC staining based flow cytometry (reference value: […] %); format: functional

Chain of Histone deacetylase 1 (Q13547 whole entry): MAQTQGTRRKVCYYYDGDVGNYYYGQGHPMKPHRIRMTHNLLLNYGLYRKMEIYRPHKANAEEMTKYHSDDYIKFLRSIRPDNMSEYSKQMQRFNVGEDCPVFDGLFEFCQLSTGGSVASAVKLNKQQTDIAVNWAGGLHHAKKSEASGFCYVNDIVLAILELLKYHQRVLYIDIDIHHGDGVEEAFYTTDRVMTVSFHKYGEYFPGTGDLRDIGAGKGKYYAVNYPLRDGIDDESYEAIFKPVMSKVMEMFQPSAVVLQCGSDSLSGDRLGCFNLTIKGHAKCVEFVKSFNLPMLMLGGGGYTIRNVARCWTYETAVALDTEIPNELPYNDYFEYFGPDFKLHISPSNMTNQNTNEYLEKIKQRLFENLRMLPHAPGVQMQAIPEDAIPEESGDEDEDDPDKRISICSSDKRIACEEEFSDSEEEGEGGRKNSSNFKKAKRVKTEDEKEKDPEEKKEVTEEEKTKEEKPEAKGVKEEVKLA
Chain of Histone deacetylase 4 (P56524 whole entry): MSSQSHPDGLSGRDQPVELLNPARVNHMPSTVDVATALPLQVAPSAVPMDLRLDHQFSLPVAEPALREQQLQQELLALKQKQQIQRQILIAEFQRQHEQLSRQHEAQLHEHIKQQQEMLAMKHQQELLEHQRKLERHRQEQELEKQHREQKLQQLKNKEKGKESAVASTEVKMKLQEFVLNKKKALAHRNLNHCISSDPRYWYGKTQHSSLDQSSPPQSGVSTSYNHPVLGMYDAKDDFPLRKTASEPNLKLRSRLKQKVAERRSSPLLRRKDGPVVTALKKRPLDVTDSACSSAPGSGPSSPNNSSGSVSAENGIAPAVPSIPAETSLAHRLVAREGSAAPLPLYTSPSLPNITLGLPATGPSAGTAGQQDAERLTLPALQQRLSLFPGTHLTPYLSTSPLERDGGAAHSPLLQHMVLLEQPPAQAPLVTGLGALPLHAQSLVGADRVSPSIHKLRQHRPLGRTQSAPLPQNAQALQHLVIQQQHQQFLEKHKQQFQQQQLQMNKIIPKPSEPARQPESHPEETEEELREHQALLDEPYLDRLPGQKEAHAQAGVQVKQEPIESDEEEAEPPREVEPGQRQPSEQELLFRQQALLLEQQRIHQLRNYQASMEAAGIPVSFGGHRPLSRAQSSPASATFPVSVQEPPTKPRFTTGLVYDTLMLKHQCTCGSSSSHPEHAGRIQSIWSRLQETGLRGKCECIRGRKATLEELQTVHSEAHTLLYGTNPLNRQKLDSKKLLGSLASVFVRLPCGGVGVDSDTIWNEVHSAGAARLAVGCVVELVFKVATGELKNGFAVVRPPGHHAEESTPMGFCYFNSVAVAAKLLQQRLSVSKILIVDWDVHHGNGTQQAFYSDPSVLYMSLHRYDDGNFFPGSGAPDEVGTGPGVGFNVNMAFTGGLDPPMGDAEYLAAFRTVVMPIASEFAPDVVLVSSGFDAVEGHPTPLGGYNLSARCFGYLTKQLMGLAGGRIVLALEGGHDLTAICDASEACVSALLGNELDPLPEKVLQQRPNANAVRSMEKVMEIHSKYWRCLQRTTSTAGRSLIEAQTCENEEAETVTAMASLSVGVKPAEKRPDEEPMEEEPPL
Chain of Histone deacetylase 3 (O15379 whole entry): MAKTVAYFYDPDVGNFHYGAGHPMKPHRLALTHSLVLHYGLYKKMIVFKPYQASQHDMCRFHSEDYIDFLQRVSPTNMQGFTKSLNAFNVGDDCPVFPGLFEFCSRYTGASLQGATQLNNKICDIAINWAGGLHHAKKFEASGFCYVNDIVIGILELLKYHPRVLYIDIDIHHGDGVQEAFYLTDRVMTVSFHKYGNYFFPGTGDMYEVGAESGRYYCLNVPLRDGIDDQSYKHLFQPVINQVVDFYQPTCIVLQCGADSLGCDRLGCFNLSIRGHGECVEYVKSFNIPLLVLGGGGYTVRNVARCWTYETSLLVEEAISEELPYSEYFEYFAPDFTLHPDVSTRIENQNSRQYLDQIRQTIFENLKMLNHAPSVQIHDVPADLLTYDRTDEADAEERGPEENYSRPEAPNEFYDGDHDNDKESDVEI
Chain of Cyclin-dependent kinase 5/CDK5 activator 1 (Homo sapiens) (Q00535 whole entry): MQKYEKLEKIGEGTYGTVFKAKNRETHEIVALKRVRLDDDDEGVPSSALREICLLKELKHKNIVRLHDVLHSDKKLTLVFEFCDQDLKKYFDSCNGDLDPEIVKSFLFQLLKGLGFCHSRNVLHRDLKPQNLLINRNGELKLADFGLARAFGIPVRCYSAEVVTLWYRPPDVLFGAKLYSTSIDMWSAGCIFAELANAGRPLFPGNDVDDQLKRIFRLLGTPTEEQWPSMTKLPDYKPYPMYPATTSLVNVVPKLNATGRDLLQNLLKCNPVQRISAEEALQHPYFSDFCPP
Chain of Cyclin-dependent kinase 5/CDK5 activator 1 (Homo sapiens) (Q15078 99-307 partner limits assumed): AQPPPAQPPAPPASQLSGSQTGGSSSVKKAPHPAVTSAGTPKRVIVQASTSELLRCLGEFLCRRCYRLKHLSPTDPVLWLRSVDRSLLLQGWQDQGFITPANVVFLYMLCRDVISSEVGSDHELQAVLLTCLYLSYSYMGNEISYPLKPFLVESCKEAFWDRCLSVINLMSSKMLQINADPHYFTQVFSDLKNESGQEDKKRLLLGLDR
Chain of Cyclin-dependent kinase 13/Cyclin-K (Homo sapiens) (O75909 whole entry, looked up): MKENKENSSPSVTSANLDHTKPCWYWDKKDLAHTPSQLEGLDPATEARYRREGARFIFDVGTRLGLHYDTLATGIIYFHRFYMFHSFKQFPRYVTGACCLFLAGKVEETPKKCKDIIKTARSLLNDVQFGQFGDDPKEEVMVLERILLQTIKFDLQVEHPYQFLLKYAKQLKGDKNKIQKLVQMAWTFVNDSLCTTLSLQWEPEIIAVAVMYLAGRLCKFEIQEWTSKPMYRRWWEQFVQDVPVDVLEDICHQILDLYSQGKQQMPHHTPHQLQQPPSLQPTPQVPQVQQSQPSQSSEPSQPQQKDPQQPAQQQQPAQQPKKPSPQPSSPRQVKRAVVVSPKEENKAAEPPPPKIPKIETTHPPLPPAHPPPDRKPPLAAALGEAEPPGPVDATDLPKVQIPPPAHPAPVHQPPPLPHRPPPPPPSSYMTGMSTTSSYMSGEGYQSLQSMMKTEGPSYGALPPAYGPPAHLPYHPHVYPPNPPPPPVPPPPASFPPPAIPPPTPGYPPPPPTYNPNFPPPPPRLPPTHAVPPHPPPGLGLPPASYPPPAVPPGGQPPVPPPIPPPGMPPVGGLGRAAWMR
Chain of Cyclin-dependent kinase 13/Cyclin-K (Homo sapiens) (Q14004 whole entry, looked up): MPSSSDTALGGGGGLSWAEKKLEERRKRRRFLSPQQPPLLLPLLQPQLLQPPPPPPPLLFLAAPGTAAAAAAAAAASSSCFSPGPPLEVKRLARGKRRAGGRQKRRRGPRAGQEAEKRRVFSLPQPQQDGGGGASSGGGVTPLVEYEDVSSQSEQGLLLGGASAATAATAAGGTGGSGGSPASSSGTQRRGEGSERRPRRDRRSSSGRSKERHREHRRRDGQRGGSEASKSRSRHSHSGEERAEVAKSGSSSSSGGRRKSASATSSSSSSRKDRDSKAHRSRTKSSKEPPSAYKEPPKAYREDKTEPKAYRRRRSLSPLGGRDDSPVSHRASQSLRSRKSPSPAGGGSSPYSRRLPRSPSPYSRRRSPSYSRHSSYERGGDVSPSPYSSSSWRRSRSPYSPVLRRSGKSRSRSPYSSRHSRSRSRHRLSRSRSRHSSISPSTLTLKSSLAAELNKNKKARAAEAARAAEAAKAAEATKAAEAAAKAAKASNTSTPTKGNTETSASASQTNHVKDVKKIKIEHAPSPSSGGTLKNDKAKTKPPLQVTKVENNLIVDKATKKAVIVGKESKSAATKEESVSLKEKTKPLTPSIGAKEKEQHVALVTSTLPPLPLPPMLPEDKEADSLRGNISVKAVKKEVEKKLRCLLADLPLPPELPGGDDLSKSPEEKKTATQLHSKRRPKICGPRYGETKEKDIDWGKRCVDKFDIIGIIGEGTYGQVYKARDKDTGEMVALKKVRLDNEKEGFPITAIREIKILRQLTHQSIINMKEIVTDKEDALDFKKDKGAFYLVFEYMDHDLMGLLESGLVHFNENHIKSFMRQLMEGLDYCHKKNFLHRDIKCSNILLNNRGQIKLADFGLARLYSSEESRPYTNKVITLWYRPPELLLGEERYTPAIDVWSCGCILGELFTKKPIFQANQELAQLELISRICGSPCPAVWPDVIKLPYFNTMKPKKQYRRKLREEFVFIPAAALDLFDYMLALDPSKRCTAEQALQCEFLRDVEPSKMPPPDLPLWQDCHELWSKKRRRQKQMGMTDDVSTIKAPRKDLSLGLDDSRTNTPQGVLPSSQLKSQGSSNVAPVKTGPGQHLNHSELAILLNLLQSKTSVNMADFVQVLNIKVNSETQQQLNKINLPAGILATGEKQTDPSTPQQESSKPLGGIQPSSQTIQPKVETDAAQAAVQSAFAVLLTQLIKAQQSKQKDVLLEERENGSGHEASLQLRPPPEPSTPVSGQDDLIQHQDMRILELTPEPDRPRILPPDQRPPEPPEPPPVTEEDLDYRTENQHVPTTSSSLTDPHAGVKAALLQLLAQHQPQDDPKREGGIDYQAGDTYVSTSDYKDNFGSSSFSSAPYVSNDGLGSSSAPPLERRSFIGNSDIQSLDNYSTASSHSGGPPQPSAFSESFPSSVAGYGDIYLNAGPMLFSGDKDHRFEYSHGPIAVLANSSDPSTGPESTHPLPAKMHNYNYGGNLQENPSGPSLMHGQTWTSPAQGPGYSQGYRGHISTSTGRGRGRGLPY

pIC50 (Histone deacetylase 1): 7.45
pIC50 (Histone deacetylase 3): 7.39
pIC50 (Histone deacetylase 4): < 6.00
inhibition [1]: 72.8%
inhibition [2]: 90.7%
inhibition [3]: 100%
AUC [14]: 2368 ng·h/mL
inhibition [15]: 57.5%
SMILES: Nc1ccccc1NC(=O)c1ccc(NC(=O)c2n[nH]cc2NC(=O)c2c(Cl)cccc2Cl)cc1
Activity (HL-60 [4]): Dose-Dependent Effect
viability at 0.2 µM (HL-60 [5]): 96.4%
Activity (HL-60 [6]): 1.61%
Activity (HL-60 [7]): 17%
Activity (HL-60 [8]): 54.5%
viability at 0.2 µM (U-937 [9]): 87.4%
Activity (U-937 [10]): 1.92%
Activity (U-937 [11]): 14%
Activity (U-937 [12]): 3.3%
Activity [13]: 28.1%

SMILES: Nc1cc(F)ccc1NC(=O)c1ccc(CNC(=O)/C=C/c2cccnc2)cc1 [TUCIDINOSTAT]
viability at 1.2 µM (HL-60 [16]): 84.7%
Activity (HL-60 [17]): 2.52%
Activity (HL-60 [18]): 8.11%
Activity (HL-60 [19]): 0.07%
Activity (HL-60 [20]): 0.353%
viability at 0.6 µM (U-937 [21]): 93.5%
Activity (U-937 [22]): 1.65%
Activity (U-937 [23]): 2.74%
Activity (U-937 [24]): 4.66%
Activity (U-937 [25]): 4.81%
Activity (U-937 [26]): 6.77%
Activity (U-937 [27]): 22.7%
Activity (U-937 [28]): 0.117%
Activity (U-937 [29]): 4.06%
